This note sets out measurements from US20150038545A1, “HYDROXYPHENYL PYRROLE COMPOUNDS CONTAINING AN HYDROXAMIC ACID AS HDAC INHIBITORS AND MEDICINAL APPLICATIONS THEREOF” (UNIVERSIDAD DEL PAÍS VASCO, priority 2011, published 2015).

Experiment [1] has as its system DU145. The experiment can be described thus: Cancer cell growth inhibition (CellTiter-Glo), DU145. The experiment is classed as cell-based, Human. As to conditions: Homo sapiens, DU-145; Prostate Cancer, DU145, 72 h treatment. As for the experimental part: (§1) Cell culture-based assays were used to evaluate the ability of compounds of the invention to inhibit cancer cell growth.
(§2) Cells were obtained from the American Type Culture Collection (ATCC). Cells were cultured at 37° C. with 5% CO2 in the appropriate growth medium (see table below), and harvested respectively during the logarithmic growth period and counted with hemocytometer. The cell viability was examined by trypan blue exclusion. Cell concentrations were adjusted to 5.56×10^4 cells/ml with respective medium.
(§3) Stock solutions of test compounds and positive drugs Doxorubicin (Zhejiang, Haizheng, China), Cisplatin (Nanjing Zhiyao, China) and Mitomycin (Zhejiang, Haizheng, China) were prepared in dimethyl sulphoxide (DMSO) or PBS at 20 mM.
(§4) In order to determine the IC50 for each compound, experiments were carried out in 96-well plates and the cell lines seeded at a density of 5,000 cells/well. […] All treatments were performed in triplicate. 10 μl of drug solution was added to each well and incubated for 72 hours. At the end of the incubation, 100 μl of the CellTiter-Glo Reagent were added to each well and the contents were mixed for 2 munites on an orbital shaker to induce cell lysis. The plate was incubated at room temperature for 10 minutes to stabilize luminiscent signal, and luminiscent was recorded. […] In order to calculate IC50 values, dose-responsive curves were fitted using nonlinear regression model with a sigmoidal dose response.

Experiment [2] has as its system BGC-823. The experiment is described as follows: Cancer cell growth inhibition (CellTiter-Glo), BGC-823. The format is cell-based, Human. The conditions noted are these: Homo sapiens; Gastric Cancer, BGC-823, 72 h treatment. As for the experimental part:
as §1, §2, §3, §4

For experiment [3], the system named is LNCaP. The experiment can be described thus: Cancer cell growth inhibition (CellTiter-Glo), LNCaP. The experiment is classed as cell-based, Human. The conditions noted are these: Homo sapiens, Prostate Cancer, 72 h treatment. As for the experimental part: as §1, §2, §3, §4
Background: In ATP-based viability assays light output follows the ATP content of the culture.

Experiment [4] relates to SK-OV-3. The experiment is described as follows: Cancer cell growth inhibition (CellTiter-Glo), SK-OV-3. The experiment is classed as cell-based, Human. As to conditions: Homo sapiens; Ovarian Cancer, SK-OV-3, 72 h treatment. The procedure: as §1, §2, §3, §4
Experiment [5] has as its system CNE2. The experiment can be described thus: Cancer cell growth inhibition (CellTiter-Glo), CNE2. The format is cell-based, Human. As to conditions: Homo sapiens, CNE-2; Nasopharyngeal, CNE2, 72 h treatment. The procedure: as §1, §2, §3, §4
In experiment [6] the target is T1, Human HDAC9 (Homo sapiens, UniProt Q9UKV0).
T1 construct: Amino acids 604-1066 with C-terminal His tag, MW=50.7 kDa; His (C); purchased BioMol, Hamburg, Germany
The experiment can be described thus: In vitro HDAC9 inhibition, fluorogenic peptide assay. The experiment is classed as biochemical. As to conditions: for IC50: read-out: IC50 (nM) of enzyme activity HDAC9. As for the experimental part:
All HDAC assays were performed using acetylated AMC-labeled peptide substrate: • Substrate for isoforms HDAC1, 2, 3, 4, 5, 6, 7, 9, 10, 11 and HeLa nuclear extract assays: Acetylated fluorogenic peptide from p53 residues 379-382 (RHKKAc) (BioMol. Cat. # KI-104). • Substrate for HDAC8 assays: Acetylated fluorogenic peptide from p53 residues 379-382 (RHKAcKAc) (BioMol. Cat. # KI-178).
Enzymes: • HDAC1 assay: 75 nM Human HDAC1 (GenBank Accession No. NM_004964): Full length with C-terminal GST tag, MW=79.9 kDa, expressed by baculovirus expression system in Sf9 cells (BioMol. Cat. # SE-456). • HDAC2 assay: 5 nM Human HDAC2 (GenBank Accession No. Q92769): Full length with C-terminal His tag, MW=60 kDa, expressed by baculovirus expression system in Sf9 cells (BioMol. Cat. # SE-500). • HDAC3 assay: 2.3 nM Human HDAC3/NcoR2 (GenBank Accession No. NM_003883 for HDAC3, GenBank Accession No.NM_006312 for NcoR2): Complex of human HDAC3, full length with C-terminal His tag, MW=49.7 kDa, and human NCOR2, N-terminal GST tag, MW=39 kDa, co-expressed in baculovirus expression system (BioMol. Cat. # SE-507). • HDAC4 assay: 266 nM Human HDAC4 (GenBank Accession No. NM_006037): Amino acids 627-1085 with N-terminal GST tag, MW=75.2 kDa, expressed in baculovirus expression system (BioMol, Hamburg, Germany). • HDAC5 assay: 588 nM Human HDAC5 (GenBank Accession No. NM_001015053): Full length with Nterminal GST tag, MW=150 kDa, expressed by baculovirus expression system in Sf9 cells (BioMol, Hamburg, Germany). • HDAC6 assay: 13 nM Human HDAC6 (GenBank Accession No. BC069243): Full length with N-terminal GST tag, MW=159 kDa, expressed by baculovirus expression system in Sf9 cells (BioMol. Cat. # SE-508). • HDAC7 assay: 962 nM Human HDAC7 (GenBank Accession No. AY302468): Amino acids 518-end with N-terminal GST tag, MW=78 kDa, expressed in baculovirus expression system (BioMol, Hamburg, Germany). • HDAC8 assay: 119 nM Human HDAC8 (GenBank Accession No. NM018486): Full length, MW=42 kDa, expressed in an E. coli expression system (BioMol. […]
The reactions were carried out in a 96-well microplate for fluorometry in a 50 μl reaction volume. […] The reaction was allowed to develop for 45 minutes at 30° C. with 5% CO2; then the fluorescent signal was measured with an excitation wavelength at 360 nm and an emission wavelength at 460 nm in a microplate-reading fluorometer (GeminiXS; Molecular Devices, Sunnyvale, Calif.). […] IC50 was calculated by fitting the experimental data to a dose-response curve. […]

T1 sequence (Q9UKV0 604-1066 isoform Q9UKV0-7): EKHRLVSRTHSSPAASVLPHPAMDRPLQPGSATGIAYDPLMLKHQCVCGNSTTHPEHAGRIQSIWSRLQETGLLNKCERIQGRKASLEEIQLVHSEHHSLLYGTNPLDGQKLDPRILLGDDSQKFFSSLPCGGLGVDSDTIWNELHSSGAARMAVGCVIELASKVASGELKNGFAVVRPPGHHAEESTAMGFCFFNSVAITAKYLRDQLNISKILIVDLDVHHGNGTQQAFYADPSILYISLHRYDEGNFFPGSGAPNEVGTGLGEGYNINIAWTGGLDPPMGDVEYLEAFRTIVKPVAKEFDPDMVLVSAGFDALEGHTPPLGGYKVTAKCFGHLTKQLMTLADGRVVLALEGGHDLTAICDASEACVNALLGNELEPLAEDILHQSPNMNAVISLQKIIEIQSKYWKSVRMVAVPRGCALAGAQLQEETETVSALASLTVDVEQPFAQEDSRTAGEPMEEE

With `O=C(CCCCCNC(=O)c1[nH]c(-c2ccccc2)cc1-c1ccc(O)cc1)NO` [Example 1, N-(6-(hydroxyamino)-6-oxohexyl)-3-(4-hydroxyphenyl)-5-phenyl-1H-pyrrole-2-carboxamide], the IC50 (usually the concentration that gives 50% inhibition) in experiment [1] stood at 0.81 µM; in experiment [2], 2.16 µM; in experiment [3], 1.11 µM; in experiment [4], 3.16 µM; in experiment [5], 2.77 µM.
Regarding `O=C(CCCCCNC(=O)c1[nH]c(-c2ccc(O)cc2)cc1-c1ccoc1)NO` [Example 5, 3-(3-furyl)-N-(5-(hydroxycarbamoyl)pentyl)-5-(4-hydroxy-phenyl)-1H-pyrrole-2-carboxamide], the IC50 came out at 0.72 µM in experiment [1]; 23.1 µM in experiment [2]; 0.59 µM in experiment [3]; 1.56 µM in experiment [4]; 27 nM in experiment [6]; 10.1 µM in experiment [5].
On to `O=C(CCCCCNC(=O)c1[nH]c(-c2ccc(O)cc2)cc1-c1ccccc1)NO` [Example 2, N-(6-(hydroxyamino)-6-oxohexyl)-5-(4-hydroxyphenyl)-3-phenyl-1H-pyrrole-2-carboxamide], for which the IC50 worked out at 1.86 µM in experiment [1]; 11.7 µM in experiment [2]; 1.77 µM in experiment [3]; 6.88 µM in experiment [4]; 10.1 µM in experiment [5].
For `O=C(CCCCCNC(=O)c1[nH]c(-c2ccc(O)cc2)cc1-c1ccsc1)NO` [Example 6, N-(5-(hydroxycarbamoyl)pentyl)-5-(4-hydroxyphenyl)-3-(3-thienyl)-1H-pyrrole-2-carboxamide], the IC50 in experiment [1] is 1.05 µM; in experiment [2], 13.8 µM; in experiment [3], 0.8 µM; in experiment [4] it was 3.15 µM; in experiment [6], 80 nM; in experiment [5], 7.39 µM.
On to `COc1ccc(-c2cc(-c3ccccc3)[nH]c2C(=O)NCCCCCC(=O)NO)cc1` [Compound A, N-[6-(hydroxyamino)-6-oxohexyl]-3-(4-methoxyphenyl)-5-phenyl-1H-pyrrole-2-carboxamide, reference compound], for which the “Selectivity against HDAC6 (IC50 HDACx/IC50 HDAC6) HDAC9” value in experiment [6] (IC50 HDAC9/IC50 HDAC6) worked out at 38.4. Further, the IC50 in experiment [6] was 768 nM.
